Assays:
[1] = tested on: in vivo bystander human HSPCs; experiment: In vivo RIBE model with antioxidant treatment, transplantation of homing human CD34+ cells into NOG mice; details: FIG. 11C
Method: NOG mice were given antioxidants for 7 days before irradiation.
For the in vivo RIBE model, CD34^+ cells purified from human cord blood (CB) were intravenously injected into 10 Gy irradiated (RIBE group) or nonirradiated (Control group) NOD/Shi-scid/IL-2Rγ^null (NOG) mice separately. After 17 hours, homing human CD34^+ cells (in vivo bystander cells) from recipients were individually detected or sorted for subsequent experiments (FIG. 1).
For the in vivo RIBE, the mice were treated with NAC, SF or Res for 7 days. CB CD34^+ cells were injected into nonirradiated or 10 Gy irradiated NOG mice in either the control, RIBE or RIBE with antioxidant treatment groups. After 17 hours, the homing human CD34^+ cells were sorted individually and transplanted into sublethally irradiated NOG mice (FIG. 10).

[2] = tested on: in vitro bystander human HSPCs; experiment: Transplantation of in vitro antioxidant-treated bystander human CD34+ cells into NOG mice; type: in vivo; details: for HPC (CD34+CD38+) engraftment in BM: antioxidant treatment in vitro, FIG. 9C
Source text: (A) Collected human CD34^+ cells from FIG. 8(A) were transplanted into NOG mice. Mean human cell engraftment (left) after human CD34^+ cells collected from FIG. 8(A) transplanted into NOG mice and bars represent the fold difference of engraftment levels from each group (right, n = 6 to 8 per group). (B-C) Frequency of human CD34^+CD38^- cells (B) and CD34^+CD38^+ cells (C) in the BM of recipient; (D) Mean engraftment level of human cells in the spleen of recipients; and (E) Number of hematopoietic clones formed by human CD34^+ cells of each group (^∗p < 0.05, ^∗∗p <[…] 0.01, ^∗∗∗p < 0.001). For the in vitro RIBE model, we cocultured CB-CD34^+ cells with 10 Gy irradiated or nonirradiated human BM cells using a transwell system. After 17 hours of coculture, the CD34^+ cells in the insert (in vitro bystander cells) were collected for subsequent experiments (FIG. 2). Female NOG mice were irradiated at a dose of 2.0 Gy one day before transplantation. The homing human CD34^+ cells were transplanted into recipients at a dose of 5,000 cells/mouse intravenously. For serial transplantations, 1×10^7 whole BM cells from each primary recipient were intravenously transplanted into secondary recipient mice that were exposed to sublethal irradiation (2.0 Gy). Next, we asked whether the pharmacological inhibition of ROS elevation could protect human HSPCs from functional degradation. We used three antioxidants: N-acetyl-L-cysteine (NAC), sulforaphane (SF) and resveratrol (Res), to eliminate excessive ROS from bystander human HSPCs in vitro. For the in vitro RIBE, the BM cells were treated with NAC, SF or Res for 30 minutes before irradiation, and the antioxidants continued to exist in the coculture system until the CB CD34^+ cells were collected for analysis and some were transplanted into sublethally irradiated NOG mice intravenously (FIG. 7).

[3] = tested on: HSPCs (CD34+ cells); experiment: γ-H2AX protein by Western blot after cytokine addition to in vitro culture system; type: cell-based, human; details: cytokine added to in vitro culture system, FIG. 6H
Method: (A) Flow cytometric analysis of fold change of ROS levels by DCF-DA staining in human CD34^+ cells of in vitro RIBE model; (B) Western blot verified the expression of related signaling pathway at the protein levels.
For the in vitro RIBE model, we cocultured CB-CD34^+ cells with 10 Gy irradiated or nonirradiated human BM cells using a transwell system. After 17 hours of coculture, the CD34^+ cells in the insert (in vitro bystander cells) were collected for subsequent experiments (FIG. 2).
Cytokines may exert multiple functions involving stress and inflammatory responses, which are also associated with RIBE. We observed several cytokines including IL-1, IL-6, IL-8, TNF-α, etc., were increased after irradiation (FIG. 6F). […] Moreover, we added IL-1α or IL-1ra to the in-vitro culture system and then measured the γ-H2AX protein by Western blot.

[4] = tested on: HSPCs; experiment: ROS levels of HSPCs in cytokine-treated groups; type: cell-based, human

Oc1ccc(C=Cc2cc(O)cc(O)c2)cc1 [Res, resveratrol]
HPC (CD34+CD38+) engraftment in BM [1]: could improve HPC engraftment in vivo
myeloid and erythroid engraftment ([2]; antioxidant administration in vitro, BM, vs RIBE group): significantly higher myeloid and erythroid engraftment than the RIBE group
HPC (CD34+CD38+) engraftment in BM [2]: could improve HPC engraftment

C[S+]([O-])CCCCN=C=S (centres unmarked) [SF, sulforaphane]
HPC (CD34+CD38+) engraftment in BM [2]: could improve HPC engraftment

IL-1ra: cytokine added to the in-vitro culture system
DNA damage of HSPCs (γ-H2AX protein level) [3]: can slightly increase DNA damage of bystander HSPCs
ROS levels of HSPCs [4]: did not change

B1: IL-1α: cytokine added to the in-vitro culture system (protein, UniProt P01583 113-271, looked up)
Interleukin-1 alpha: SAPFSFLSNVKYNFMRIIKYEFILNDALNQSIIRANDQYLTAAALHNLDEAVKFDMGAYKSSKDDAKITVILRISKTQLYVTAQDEDQPVLLKEMPEIPKTITGSETNLLFFWETHGTKNYFTSVAHPNLFIATKQDYWVCLAGGPPSITDFQILENQA
DNA damage of HSPCs (γ-H2AX protein level) [3]: could loosen DNA damage of HSPCs both in the control and RIBE groups
ROS levels of HSPCs [4]: did not change

Reference: patent US20230139025A1, “ANTIOXIDANT FOR USE IN TREATMENT FOR RIBE” (Institute of Hematology and Blood Diseases Hospital, CAMS & …, priority 2021, published 2023)
